Measured values: patent publication US20250320247A1, “NOVEL D-AMINO ACID DERIVATIVE AND PHARMACEUTICAL COMPOSITION COMPRISING SAME” (SENELIX CO., LTD., priority 2022, published 2025)
Non-standard residues stand in square brackets, D forms with d. Residues, ends and D or L forms follow the SMILES beside them.

Tests used:
IL-1β = experiment: In-vitro anti-inflammatory test: IL-1β expression by western blotting in LPS-treated macrophages (RAW 264.7); type: cell-based; conditions: RAW 264.7, LPS 100 ng/ml, test substance 1 μM and 10 μM, 30 minutes, vs LPS-only control
Protocol: (§1) Lipopolysaccharide (LPS)-treated macrophages (RAW 264.7) were treated with the compounds prepared in Examples 1 and 2 as test substances, respectively, and the change in the production of inflammatory cytokines (TNF-α and IL-1β) was measured by ELISA and western blotting, respectively.
In addition, […] macrophages (RAW 264.7) were dispensed in each well of a 96-well plate together with 0.1 mL of Dulbecco's modified Eagle's medium (DMEM) containing 10% FBS (GIBCO) and 1% penicillin/streptomycin. After incubation for 1 day in a 5% CO2 incubator at 37° C., when the confluency of the cells reached 80% or higher, LPS (100 ng/ml) and the test substance were treated at concentrations of 1 μM and 10 μM, respectively, and incubated for 30 minutes. A control group was treated only with LPS (100 ng/ml) and incubated for 30 minutes. The cells were lysed using an NP40 cell lysis buffer and quantified by Bradford assay. Then, the expression level of IL-1β was measured by western blotting.

TNF-α = experiment: In-vitro anti-inflammatory test: TNF-α production by ELISA in LPS-treated macrophages (RAW 264.7); type: cell-based; conditions: RAW 264.7, LPS 100 ng/ml, test substance 1 μM and 10 μM, 24 hours, vs LPS-only control
Protocol: as §1
Specifically, 1×10^4 macrophages (RAW 264.7) were dispensed in each well of a 96-well plate together with 0.1 mL of Dulbecco's modified Eagle's medium (DMEM) containing 10% FBS (GIBCO) and 1% penicillin/streptomycin. After incubation for 1 day in a 5% CO2 incubator at 37° C., when the confluency of the cells reached 80% or higher, LPS (100 ng/ml) and the test substance were treated at concentrations of 1 μM and 10 μM, respectively, and incubated for 24 hours. A control group was treated only with LPS (100 ng/ml) and incubated for 24 hours. The supernatant of each test group was prepared as a sample for ELISA analysis. The production of TNF-α was investigated using an ELISA assay kit (ELISA MAX Standard Set Human TNF-α; BioLegend, #430201) and a microplate reader at 450 nm according to the manufacturer's protocol.

[1] = system: corneal damage-induced Sprague-Dawley rats; experiment: Corneal damage model: corneal fluorescein staining score (NEI grading); type: in vivo; conditions: 10 μL/eye, 3 times a day; for corneal fluorescein staining score vs normal control group (G1): 6 hours to 5 days, p<0.01; for corneal fluorescein staining score vs induced control (G2): at 6 hours and on days 2 to 6, p<0.001, p<0.01 or p<0.05; for corneal fluorescein staining score vs PBS group (G3): days 3 to 6, p<0.001 or p<0.01
Protocol: (§2) Corneal damage was induced in pathogen-free (SPF) Sprague-Dawley rats (male, 7 weeks old) [Koatech, Korea]. Specifically, after anesthetizing the rats, a filter paper soaked in 2 μL of 0.1 M NaOH solution was applied to the center of the cornea of the right eye for about 10 seconds, and then washed with physiological saline. The body weight of the corneal damage-induced rats was measured, and they were randomly divided into groups G2 to G6 as shown in Table 2 so that the average body weight of each group was distributed uniformly. G1 is a normal control group in which corneal damage was not induced.
From the day of the corneal damage (day 0), the compound prepared in Example 2 as a test substance (i.e., acetate of the compound of the Chemical Formula 1b, hereinafter referred to as ‘Compound 1b’) was dissolved in physiological saline (PBS) at concentrations of 0.1% and 1% and instilled into the eye of the mice of G4 and G5 at 10 μL/eye, 3 times a day, for 7 days. G2 is an induced control group in which corneal damage was induced. For G3, physiological saline (PBS) was instilled 10 into the eye of the corneal damage-induced rats. For G6 (positive control), Restasis® ophthalmic solution (0.05%, containing cyclosporine) was instilled into the eye of the corneal damage-induced rats.
(§3) Statistical analysis was performed using Prism 7.04 (GraphPad Software Inc., San Diego, CA, USA), and a p-value smaller than 0.05 was judged to be statistically significant.

[2] = system: dry eye syndrome-induced C57BL/6NHsd mice; experiment: Dry eye syndrome model: corneal fluorescein staining score (NEI grading); type: in vivo; conditions: 2 μL/eye, 3 times a day, day 5 to day 10; for corneal fluorescein staining score vs PBS group (G3): p<0.001 or p<0.01; for corneal fluorescein staining score vs normal control (G1): p<0.01 or p<0.05
Protocol: (§4) Dry eye syndrome was induced in specific pathogen-free (SPF) C57BL/6NHsd mice (male, 7 weeks old) [Koatech, Korea]. Specifically, during the dry eye syndrome induction period (from day −10 to day 0), scopolamine hydrobromide dissolved in physiological saline (PBS) was injected subcutaneously into the back skin of mice at a dose of 0.5 mg/0.2 mL, 4 times a day, for 10 days. After measuring the tear volume of the dry eye syndrome-induced mice, the mice were randomly divided into groups of G2 to G6 as shown in Table 1 so that the average tear volume of each group was distributed uniformly. G1 is a normal control group in which dry eye syndrome was not induced.
(§5) From the day of the induction of dry eye syndrome (day 0), the compound prepared in Example 2 as a test substance (i.e., acetate of the compound of the Chemical Formula 1b, hereinafter referred to as ‘Compound 1b’) was dissolved in physiological saline (PBS) at concentrations of 0.1% and 1% and dropped onto the center of the right cornea of the mice of G4 and G5 3 times a day for 10 days, respectively. G2 is a dry eye syndrome-induced control group. For G3, physiological saline (PBS) was dropped onto the center of the cornea of the right eye of the mice in which dry eye syndrome was induced. For G6 (positive control group), Restasis® ophthalmic solution (0.05%, containing cyclosporine) was dropped onto the center of the cornea of the right eye of the dry eye syndrome-induced mice.
as §3

[3] = system: dry eye syndrome-induced C57BL/6NHsd mice; experiment: Dry eye syndrome model: histopathological examination (H&E) of inflammation; type: in vivo; conditions: day 10; for level of inflammation and fibrosis vs G2 and G3 (histopathology): 2 μL/eye, 3 times a day for 10 days, p<0.001 or p<0.05
Protocol: as §4, §5
On the day of autopsy (day 10), the animal was euthanized and the eyeball was removed to include the conjunctiva and fixed in a 10% neutral buffered formalin solution. Samples for histopathological examination were prepared through the processes of trimming, dehydration, paraffin embedding and thin-sectioning of the fixed tissue, followed by hematoxylin and eosin (H&E) staining. Then, the infiltration of inflammatory cells into the cornea, conjunctiva and anterior chamber was evaluated by optical microscopy (Olympus BX53, Japan). The inflammation of the cornea and conjunctiva was assessed according to the known method. The scoring criteria were as follows. Scores: 0 (normal), 1 (mild), 2 (moderate), 3 (severe).
as §3

[4] = system: corneal damage-induced Sprague-Dawley rats; experiment: Corneal damage model: histopathological examination (H&E) of inflammatory cell infiltration; type: in vivo; conditions: 10 μL/eye, 3 times a day for 7 days, day 7
Protocol: as §2, with “induced. […]” for “induced.”
On the day of autopsy (day 7), the animal was euthanized, and the eyeball was removed to include the conjunctiva and fixed in a 10% neutral buffered formalin solution. […] Then, the infiltration of inflammatory cells into the cornea, conjunctiva and anterior chamber was evaluated by optical microscopy (Olympus BX53, Japan). The infiltration of inflammatory cells into the corneal stroma and anterior chamber was evaluated according to the known method. […]

[5] = system: dry eye syndrome-induced C57BL/6NHsd mice; experiment: Dry eye syndrome model: tear volume by phenol red thread test; type: in vivo; conditions: 2 μL/eye, 3 times a day; for tear volume level vs normal control group (G1) / tear volume level vs induced control group (G2): days 5 and 10; for tear volume level vs induced control group (G2): p<0.001, p<0.01 or p<0.05
Protocol: as §4, §5
Tear volume was measured by phenol red thread (PRT) test. Specifically, on days 5 and 10 after the start of the administration of the test substance, a phenol red thread was placed in the lateral canthus of the eye for 20 seconds and then tear volume (mm) was measured.
as §3

`NC(=O)C[C@@H](NC(=O)[C@H](N)CC(=O)O)C(=O)N[C@H](CC(=O)O)C(=O)O` [Chemical Formula 1a] (H-[dD]-[dN]-[dD]-OH) was tested, and the “expression of inflammatory cytokine IL-1β” value (IL-1β) was “inhibited in a concentration-dependent manner” and the “secretion of inflammatory cytokine TNF-α” value (TNF-α) was “inhibited in a concentration-dependent manner”.
`NC(=O)C[C@@H](NC(=O)[C@H](N)CC(=O)O)C(=O)N[C@H](CC(=O)O)C(N)=O` [Compound 1b] (H-[dD]-[dN]-[dD]-NH2) was tested, and the “corneal fluorescein staining score vs normal control group (G1)” value ([1]; G4: 0.1% in PBS) was “statistically significantly higher than that of the normal control group (G1)”, the “corneal fluorescein staining score vs induced control (G2)” value ([1]; G4: 0.1% in PBS) was “significantly lower than that of G2” and the “corneal fluorescein staining score vs PBS group (G3)” value ([1]; G4: 0.1% in PBS) was “significantly lower than that of G3”. For the same molecule, the “corneal fluorescein staining score vs normal control group (G1)” value ([1]; G5: 1% in PBS) was “statistically significantly higher than that of the normal control group (G1)”, the “corneal fluorescein staining score vs induced control (G2)” value ([1]; G5: 1% in PBS) was “significantly lower than that of G2” and the “corneal fluorescein staining score vs PBS group (G3)” value ([1]; G5: 1% in PBS) was “significantly lower than that of G3”. For the same molecule, the “expression of inflammatory cytokine IL-1β” value (IL-1β) was “inhibited in a concentration-dependent manner”, the “corneal fluorescein staining score vs induced control (G2)” value ([2]; G4: 0.1% in PBS) was “significantly lower than that of G2” and the “corneal fluorescein staining score vs PBS group (G3)” value ([2]; G4: 0.1% in PBS) was “statistically significantly lower than that of G3”. The “corneal fluorescein staining score vs normal control (G1)” value ([2]; G4: 0.1% in PBS) was “statistically significantly higher than that of G1”, the “corneal fluorescein staining score vs induced control (G2)” value ([2]; G5: 1% in PBS) was “significantly lower than that of G2” and the “corneal fluorescein staining score vs PBS group (G3)” value ([2]; G5: 1% in PBS) was “statistically significantly lower than that of G3”. The “corneal fluorescein staining score vs normal control (G1)” value ([2]; G5: 1% in PBS) was “statistically significantly higher than that of G1”, the “inflammation in the cornea and conjunctiva (histopathology)” value ([3]; 0.1% test substance-administered group) was “no inflammation was observed” and the “inflammation in the cornea and conjunctiva (histopathology)” value ([3]; 1% test substance-administered group) was “no inflammation was observed”. For the same molecule, the “level of inflammation and fibrosis vs G2 and G3 (histopathology)” value ([3]; G4: 0.1% in PBS) was “significantly lower as compared to G2 and G3”, the “level of inflammation and fibrosis vs G2 and G3 (histopathology)” value ([3]; G5: 1% in PBS) was “significantly lower as compared to G2 and G3” and the “secretion of inflammatory cytokine TNF-α” value (TNF-α) was “inhibited in a concentration-dependent manner”. For the same molecule, the “degree of infiltration of inflammatory cells into corneal keratocytes and anterior chamber vs G2 and G3” value ([4]; G4: 0.1% in PBS) was “statistically significantly lower”, the “degree of infiltration of inflammatory cells into corneal keratocytes and anterior chamber vs G2 and G3” value ([4]; G5: 1% in PBS) was “statistically significantly lower” and the “tear volume level vs PBS group (G3)” value ([5]; G4: 0.1% in PBS, day 10, p<0.001) was “significantly higher than that of G3”. For the same molecule, the “tear volume level vs normal control group (G1)” value ([5]; G4: 0.1% in PBS, p<0.001) was “statistically significantly lower than that of the normal control group (G1)”, the “tear volume level vs induced control group (G2)” value ([5]; G4: 0.1% in PBS) was “significantly higher than that of G2” and the “tear volume level vs PBS group (G3)” value ([5]; G5: 1% in PBS, day 5, p<0.01) was “statistically significantly higher than that of G3”. The “tear volume level vs PBS group (G3)” value ([5]; G5: 1% in PBS, day 10, p<0.001) was “significantly higher than that of G3”, the “tear volume level vs normal control group (G1)” value ([5]; G5: 1% in PBS, p<0.001) was “statistically significantly lower than that of the normal control group (G1)” and the “tear volume level vs induced control group (G2)” value ([5]; G5: 1% in PBS) was “significantly higher than that of G2”.
